Measurements reported in publication PMC9409066, “Functional Characterization of the Venus Flytrap Domain of the Human TAS1R2 Sweet Taste Receptor” (International Journal of Molecular Sciences, 2022).
Substitutions are numbered along the chain they refer to. Like-named read-outs stand apart in the source and are kept apart here. Marks after values point to notes of the source that are not given here. Residues, ends and D or L forms follow the SMILES beside them.

Columns and labels:
hTAS1R2-VFT = biological target: T1, hTAS1R2-VFT (Homo sapiens, UniProt Q8TE23); experiment: Intrinsic tryptophan fluorescence ligand binding, hTAS1R2-VFT
T1 construct: followed by hTAS1R2-VFT (Ala22-Ser493) and another His6-tag at the C-terminus; His6 (thrombin-cleavable) (N); made in house
T1 sequence (Q8TE23 22-493): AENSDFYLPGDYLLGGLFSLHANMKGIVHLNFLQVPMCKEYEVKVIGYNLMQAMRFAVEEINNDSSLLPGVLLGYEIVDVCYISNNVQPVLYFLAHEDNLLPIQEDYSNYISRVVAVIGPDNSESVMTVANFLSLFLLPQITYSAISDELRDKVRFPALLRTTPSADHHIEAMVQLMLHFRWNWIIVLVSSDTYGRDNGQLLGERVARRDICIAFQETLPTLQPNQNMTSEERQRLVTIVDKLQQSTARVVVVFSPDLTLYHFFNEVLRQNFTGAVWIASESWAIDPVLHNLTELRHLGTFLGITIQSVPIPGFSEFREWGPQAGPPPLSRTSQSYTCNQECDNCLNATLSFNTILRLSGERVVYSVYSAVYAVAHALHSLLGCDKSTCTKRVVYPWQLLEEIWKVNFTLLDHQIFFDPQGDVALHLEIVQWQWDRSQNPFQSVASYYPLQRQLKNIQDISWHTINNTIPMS
Text: Therefore, we tested the binding affinity of hTAS1R2-VFT using an intrinsic tryptophan fluorescence assay. This approach allows one to measure protein–ligand interactions by measuring the fluorescence emitted by tryptophan residues upon the titration of sweet ligands. This technique is very sensitive to changes in the local environment of fluorescent amino acid residues within a protein and has been used to measure protein–ligand binding interactions with mouse, human and cat TAS1R-VFTs. For this purpose, we determined the concentration response relationships for the intrinsic tryptophan fluorescence of hTAS1R2-VFT upon the addition of various sweet compounds.
Figure 4 Binding properties of hTAS1R2-VFT assessed by intrinsic tryptophan fluorescence. Titration curves of hTAS1R2-VFT were generated with natural sugars (pink circles) or sweeteners (blue circles). Circles show experimental data, while the solid lines are the computed binding curves; excitation and emission wavelengths were 295 nm and 340 nm, respectively; hTAS1R2-VFT concentration, 0.5 µM. Data points correspond to the means ± SEMs of at least 12 independent replicates of at least three independently refolded protein samples, except for glucose, 6 independent replicates over three independently refolded protein samples.
All measurements were conducted at 20 °C using a Cary Eclipse spectrofluorimeter (Agilent Technologies, Santa Clara, CA, USA) equipped with a Peltier temperature control unit with a 5 nm bandwidth for emission and excitation. Ligand binding experiments with 0.5 µM hTAS1R2-VFTs were performed in buffer composed of 50 mM Tris-HCl pH 8, 150 mM NaCl, 0.5 mM DDM and 1 mM DTT. The intrinsic fluorescence of hTAS1R2-VFTs was measured at an excitation wavelength of 295 nm, and emission spectra were recorded from 320 to 380 nm. Fluorescence emission values were collected at 340 nm wavelength in the presence and absence of sweet ligands. A range of ligand concentrations were freshly prepared in 50 mM Tris-HCl pH 8.0. For titration experiments, successive 0.4 µL aliquots of sweeteners were added to 400 µL of hTAS1R2-VFT solution. Fluorescence measurements were corrected for bleaching, dilution and nonspecific buffer quenching. The dissociation constants (Kd) were calculated from a plot of the ratio between the fluorescence intensity variation and the maximum fluorescence intensity variation (ΔF/ΔFmax) versus the concentration of the total ligand. Assuming that the binding of hTAS1R2-VFT to sweet compounds is described by a one-site binding model, the Kd values of ligand–receptor interactions were determined with a standard nonlinear regression method using SigmaPlot 12.5 software (Systat Software, Inc., San Jose, CA, USA) as previously described. For each ligand, the experiment was repeated on at least twelve cells over at least three different batches of refolded hTAS1R2-VFT.

human panels = details: molar basis, cited from earlier work
[1] = test system: full-length hTAS1R2/hTAS1R3 receptor E382A; design: method as in PMID 22536376; details: cellular assays; cited from earlier work
[2] = biological target: T2, human TAS1R2/TAS1R3 receptor (Homo sapiens, UniProt Q7RTX0+Q8TE23); details: cellular assays, cited from earlier work
T2 sequence (Q8TE23 20-839): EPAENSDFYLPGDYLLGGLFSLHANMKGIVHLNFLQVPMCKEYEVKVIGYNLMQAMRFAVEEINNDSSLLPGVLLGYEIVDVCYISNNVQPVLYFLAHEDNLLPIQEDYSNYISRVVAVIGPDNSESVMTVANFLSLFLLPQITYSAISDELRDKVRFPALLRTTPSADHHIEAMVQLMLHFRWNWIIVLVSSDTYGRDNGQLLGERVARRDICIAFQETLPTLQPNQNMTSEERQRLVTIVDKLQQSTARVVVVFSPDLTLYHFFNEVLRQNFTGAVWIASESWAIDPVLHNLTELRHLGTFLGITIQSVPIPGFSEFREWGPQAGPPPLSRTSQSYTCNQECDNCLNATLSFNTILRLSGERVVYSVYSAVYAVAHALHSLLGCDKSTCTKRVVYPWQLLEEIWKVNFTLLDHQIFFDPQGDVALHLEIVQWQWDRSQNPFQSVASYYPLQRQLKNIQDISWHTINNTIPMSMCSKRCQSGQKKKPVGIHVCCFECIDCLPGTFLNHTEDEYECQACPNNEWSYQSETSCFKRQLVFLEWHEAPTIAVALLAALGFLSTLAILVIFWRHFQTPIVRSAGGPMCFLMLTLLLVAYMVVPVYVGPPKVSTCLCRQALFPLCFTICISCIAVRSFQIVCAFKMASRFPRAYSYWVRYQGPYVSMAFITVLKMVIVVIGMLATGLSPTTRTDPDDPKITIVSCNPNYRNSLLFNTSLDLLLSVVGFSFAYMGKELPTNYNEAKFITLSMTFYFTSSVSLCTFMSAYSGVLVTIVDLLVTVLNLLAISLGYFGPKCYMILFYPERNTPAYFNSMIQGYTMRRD
T2 sequence (Q7RTX0 21-852): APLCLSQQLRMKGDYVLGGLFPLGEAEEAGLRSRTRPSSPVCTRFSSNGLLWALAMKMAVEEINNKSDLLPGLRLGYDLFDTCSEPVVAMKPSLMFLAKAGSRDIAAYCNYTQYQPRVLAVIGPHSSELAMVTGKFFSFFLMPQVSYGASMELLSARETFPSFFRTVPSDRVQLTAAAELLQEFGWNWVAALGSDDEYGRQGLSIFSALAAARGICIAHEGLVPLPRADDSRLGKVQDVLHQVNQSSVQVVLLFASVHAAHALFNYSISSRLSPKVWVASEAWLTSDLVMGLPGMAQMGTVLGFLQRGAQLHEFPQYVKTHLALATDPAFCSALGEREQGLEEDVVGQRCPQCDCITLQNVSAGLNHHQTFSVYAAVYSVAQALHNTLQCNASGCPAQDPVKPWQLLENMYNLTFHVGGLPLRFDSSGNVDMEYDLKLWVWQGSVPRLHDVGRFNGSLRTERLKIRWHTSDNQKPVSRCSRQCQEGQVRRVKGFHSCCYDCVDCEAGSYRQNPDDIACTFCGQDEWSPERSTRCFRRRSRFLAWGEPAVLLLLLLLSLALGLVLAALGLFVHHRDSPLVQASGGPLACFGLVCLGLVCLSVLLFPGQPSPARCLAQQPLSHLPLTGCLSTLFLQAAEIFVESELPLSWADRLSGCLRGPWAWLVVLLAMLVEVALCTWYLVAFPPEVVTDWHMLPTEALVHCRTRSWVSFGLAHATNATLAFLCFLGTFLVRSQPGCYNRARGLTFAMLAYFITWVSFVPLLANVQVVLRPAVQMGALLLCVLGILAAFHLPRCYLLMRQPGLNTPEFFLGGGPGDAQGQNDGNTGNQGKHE

hTAS1R2-VFT-D278A = biological target: T3, hTAS1R2-VFT-D278A (Homo sapiens, UniProt Q8TE23, D278A); experiment: Intrinsic tryptophan fluorescence ligand binding, mutant D278A; details: Table 2, read-out: Apparent Kd hTAS1R2-VFT-D278A
T3 construct: followed by hTAS1R2-VFT (Ala22-Ser493) and another His6-tag at the C-terminus; His6 (thrombin-cleavable) (N); made in house
T3 sequence (Q8TE23 22-493 D278A): T1 sequence (Q8TE23 22-493) with D257A
Text: To further confirm that the binding is specific, we performed mutagenesis studies on hTAS1R2-VFT. […] We performed ligand-binding titration assays in the same way as for hTAS1R2-VFT for the two point mutants.
Figure 5 Titration curves of hTAS1R2-VFT-D278A (blue triangles) and hTAS1R2-VFT (black circles) with sucralose (A) and aspartame (B). Circles and triangles show experimental data, while the solid lines are the computed binding curves. Wild-type receptor dose–responses are the same as for Figure 4. Data points correspond to the means ± SEMs of at least 12 independent replicates of at least three independently refolded protein samples.
All measurements were conducted at 20 °C using a Cary Eclipse spectrofluorimeter (Agilent Technologies, Santa Clara, CA, USA) equipped with a Peltier temperature control unit with a 5 nm bandwidth for emission and excitation. Ligand binding experiments with 0.5 µM hTAS1R2-VFTs were performed in buffer composed of 50 mM Tris-HCl pH 8, 150 mM NaCl, 0.5 mM DDM and 1 mM DTT. The intrinsic fluorescence of hTAS1R2-VFTs was measured at an excitation wavelength of 295 nm, and emission spectra were recorded from 320 to 380 nm. Fluorescence emission values were collected at 340 nm wavelength in the presence and absence of sweet ligands. […] Fluorescence measurements were corrected for bleaching, dilution and nonspecific buffer quenching. […]

[3] = test system: full-length hTAS1R2/hTAS1R3 receptor D278A; design: method as in PMID 22536376; details: cellular-based assay; cited from earlier work
[4] = biological target: T2, human TAS1R2/TAS1R3 receptor; experiment: Cellular-based assay of the sweet taste receptor (EC50); assay type: cell-based
Text: We determined its affinity constants for natural sugars using dose–response curves.

human TAS1R3-VFT = biological target: human TAS1R3-VFT; design: method as in PMID 22450161; details: cited from earlier work
[5] = Table 1, intrinsic fluorescence, 0.5 µM protein, 20 °C, pH 8, read-out: hTAS1R2-VFT (Kd)
[6] = in water equivalent to 5% sucrose, ref Shallenberger, 1993
[7] = in water equivalent to 2% sucrose, ref Schiffman and Gatlin, 1993
[8] = in water equivalent to 2% sucrose, ref Bassoli et al., 2002

Row | SMILES | Kd (hTAS1R2-VFT; [5]) [µM] | Sweetness Potency (human panels; [7]) | further results
1 | OC[C@H]1O[C@@H](O[C@H]2[C@H](O)[C@@H](O)C(O)O[C@@H]2CO)[C@H](O)[C@@H](O)[C@H]1O (mixture of isomers) [Lactose] | > 70000 | – | Sweetness Potency (human panels; [6]): 0.3 ^f
2 | CC1=CC(=O)NS(=O)(=O)O1 [Acesulfame-K] | 0.9 ± 0.2 | 200 ^e | effect of E382A on the full-length receptor response [1]: abolishes
3 | C[C@@H](NC(=O)[C@@H](N)CC(=O)O)C(=O)NC1C(C)(C)SC1(C)C [Alitame] | 0.15 ± 0.03 | 4500 ^e | EC50 ([2]; ref unpublished data obtained from collaborators): 13.8 ± 0.3 µM
4 | COC(=O)[C@H](Cc1ccccc1)NC(=O)[C@@H](N)CC(=O)O [Aspartame] (H-Asp-Phe-OMe) | 17.2 ± 3.1 | 250 ^e | Kd (hTAS1R2-VFT-D278A): 223 ± 27.7 µM; EC50 ([2]; ref Masuda et al., 2012): 75 ± 11 µM; effect of D278A on the full-length receptor response [3]: decrease the response
5 | O=S(=O)(O)NC1CCCCC1 [Cyclamate] | – | 26 ^e | –
6 | O=C(CO)[C@@H](O)[C@H](O)[C@H](O)CO [Fructose] | – | 0.7 ^e | Kd (hTAS1R2-VFT): 900 ± 200 µM; EC50 [4]: 8000 ± 4000 µM
7 | OC[C@H]1OC(O)[C@H](O)[C@@H](O)[C@@H]1O (some centres unmarked) [Glucose] | 1500 ± 300 | – | Sweetness Potency (human panels; [6]): 0.6 ^f
8 | COC(=O)[C@H](Cc1ccccc1)NC(=O)[C@H](CC(=O)O)NCCC(C)(C)C [Neotame] | 0.09 ± 0.02 | – | Sweetness Potency (human panels; [8]): 11,000 ^g
9 | C=C(C)[C@@H]1CC=C(/C=N/O)CC1 [Perillartine] | – | – | EC50 ([2]; ref Belloir et al., 2021): 2.54 ± 0.48 µM; Sweetness Potency (human panels; [8]): 1000 ^g
10 | O=C1NS(=O)(=O)c2ccccc21 [Saccharin] | – | 500 ^e | –
11 | OC[C@H]1O[C@H](O[C@]2(CCl)O[C@H](CCl)[C@@H](O)[C@@H]2O)[C@H](O)[C@@H](O)[C@H]1Cl [Sucralose] | 7 ± 1.3 | 600 ^e | binding affinity for human TAS1R3-VFT (human TAS1R3-VFT): millimolar range; effect of D278A on the full-length receptor response [3]: abolish the response; effect of E382A on the full-length receptor response [1]: reduces
12 | OC[C@H]1O[C@@](CO)(O[C@H]2O[C@H](CO)[C@@H](O)[C@H](O)[C@H]2O)[C@@H](O)[C@@H]1O [Sucrose] | 4200 ± 900 | 1 ^e | EC50 ([4]; cellular assays, unpublished data from our laboratory, read-out: EC50): 11000 ± 3000 µM
